Experimental data as given in patent EP4603105A1, “PHARMACEUTICAL COMPOSITION CONTAINING CYCLIC COMPOUND HAVING SELECTIVE KRAS INHIBITORY EFFECT AGAINST HRAS AND NRAS” (CHUGAI SEIYAKU KABUSHIKI KAISHA, priority 2022, dated 2024).
*1 amine or outer side, *2 acyl side, *3 side chain or, on linkers, in order; H or OH if unused. Where a SMILES comes first, the peptide text is derived from it. Bridges are numbered along the chain shown (N, C = ends). [ ]: non-standard residue; d: D form. The star is where a group is joined. hPhe(3-Cl-4-CF3) = N[C@@H](CCc1ccc(C(F)(F)F)c(Cl)c1)C(=O)O; NPrPhe(4-CF3) = CCCN[C@@H](Cc1ccc(C(F)(F)F)cc1)C(=O)O; X50 = C=CCN([C@@H](Cc1ccc(C)cc1)C(=O)[*:2])[*:1]; X52 = C#CCN([C@@H](Cc1ccc(C)cc1)C(=O)[*:2])[*:1]; NMeGly(cPent) = CN[C@H](C(=O)O)C1CCCC1; Pro(4S-Me) = C[C@@H]1CN[C@H](C(=O)O)C1; Aze(3S-Me) = C[C@H]1CN[C@@H]1C(=O)O; Gly(cPent) = N[C@H](C(=O)O)C1CCCC1; cisHyp = O=C(O)[C@@H]1C[C@H](O)CN1; NMeD = CN[C@@H](CC(=O)O)C(=O)O; NMeL = CN[C@@H](CC(C)C)C(=O)O; Morpholide = C1CN(*)CCO1; NMeA = CN[C@@H](C)C(=O)O; Ac5c = NC1(C(=O)O)CCCC1; Aze = O=C(O)[C@@H]1CCN1; Ethyl(2,2-F2) = FC(F)C*; Ac3c = NC1(C(=O)O)CC1; NEtG = CCNCC(=O)O; Sar = CNCC(=O)O

Test system: human lung cancer strain NCI-H441
Type: cell-based
Protocol: A test compound was dispensed into a U-bottom 384-well plate as 40 nL serially diluted dimethyl sulfoxide solutions using a liquid handler Echo (LABCYTE). […] This cell suspension was dispensed in an amount of 40 µL per well into a plate containing the test compound, and cultured at 37°C in a 5% carbon dioxide gas incubator. Four days later, 20 µL of CellTiter-Glo (registered trademark) (Promega) was added to each well and […] was measured. […]

IC50	SMILES
8.4 nM	CCCN1C(=O)CN(C)C(=O)CN(C)C(=O)[C@H](C2CCCC2)NC(=O)[C@H](CC(C)C)N(C)C(=O)C[C@@H](C(=O)N2CCOCC2)N(C)C(=O)[C@H](C2CCCC2)N(C)C(=O)C2(CCCC2)NC(=O)[C@@H]2CCCN2C(=O)[C@H](CCc2ccc(C(F)(F)F)c(Cl)c2)NC(=O)CN(C)C(=O)[C@@H]1Cc1ccc(C(F)(F)F)cc1 [PP0251] ([NMeL][Gly(cPent)][Sar][Sar][NPrPhe(4-CF3)][Sar][hPhe(3-Cl-4-CF3)]P[Ac5c][NMeGly(cPent)][NMeD]-Morpholide; lactam N-11)
752 nM	CCCN1C(=O)[C@@H]2CCN2C(=O)C2(CC2)NC(=O)[C@H]([C@@H](C)CC)NC(=O)[C@H](CC(C)C)N(C)C(=O)C[C@@H](C(=O)N2CCOCC2)N(C)C(=O)[C@H](C2CCCC2)N(C)C(=O)C2(CCCC2)NC(=O)[C@@H]2CCCN2C(=O)[C@H](CCc2ccc(C(F)(F)F)c(Cl)c2)NC(=O)CN(C)C(=O)[C@@H]1Cc1ccc(C(F)(F)F)cc1 [PP0276] ([NMeL]I[Ac3c][Aze][NPrPhe(4-CF3)][Sar][hPhe(3-Cl-4-CF3)]P[Ac5c][NMeGly(cPent)][NMeD]-Morpholide; lactam N-11)
39.7 nM	CCCN1C(=O)CN(C)C(=O)CN(C)C(=O)[C@H]([C@@H](C)CC)NC(=O)[C@H](CC(C)C)N(C)C(=O)C[C@@H](C(=O)N2CCOCC2)N(C)C(=O)[C@H](C2CCCC2)N(C)C(=O)C2(CCCC2)NC(=O)[C@H](C)NC(=O)[C@H](CCc2ccc(C(F)(F)F)c(Cl)c2)NC(=O)CN(C)C(=O)[C@@H]1Cc1ccc(C(F)(F)F)cc1 [PP1914] ([NMeL]I[Sar][Sar][NPrPhe(4-CF3)][Sar][hPhe(3-Cl-4-CF3)]A[Ac5c][NMeGly(cPent)][NMeD]-Morpholide; lactam N-11)
11.2 nM	CCCN1C(=O)CN(C)C(=O)CN(CC)C(=O)[C@H]([C@@H](C)CC)NC(=O)[C@H](CC(C)C)N(C)C(=O)C[C@@H](C(=O)N2CCOCC2)N(C)C(=O)[C@H](C2CCCC2)N(C)C(=O)C2(CCCC2)NC(=O)[C@@H]2C[C@H](C)CN2C(=O)[C@H](CCc2ccc(C(F)(F)F)c(Cl)c2)NC(=O)CN(C)C(=O)[C@@H]1Cc1ccc(C(F)(F)F)cc1 [PP0451] ([NMeL]I[NEtG][Sar][NPrPhe(4-CF3)][Sar][hPhe(3-Cl-4-CF3)][Pro(4S-Me)][Ac5c][NMeGly(cPent)][NMeD]-Morpholide; lactam N-11)
22.9 nM	CCCN1C(=O)CN(C)C(=O)CN(C)C(=O)[C@H]([C@@H](C)CC)NC(=O)[C@H](CC(C)C)N(C)C(=O)C[C@@H](C(=O)N2CCOCC2)N(C)C(=O)[C@H](C2CCCC2)N(C)C(=O)C2(CCCC2)NC(=O)[C@@H]2C[C@H](OCC(F)F)CN2C(=O)[C@H](CCc2ccc(C(F)(F)F)c(Cl)c2)NC(=O)CN(C)C(=O)[C@@H]1Cc1ccc(C(F)(F)F)cc1 [PP0245] ([NMeL]I[Sar][Sar][NPrPhe(4-CF3)][Sar][hPhe(3-Cl-4-CF3)][cisHyp](Ethyl(2,2-F2))[Ac5c][NMeGly(cPent)][NMeD]-Morpholide; lactam N-11)

More lines, now with the values behind:

SMILES	IC50
CC[C@H](C)[C@@H]1NC(=O)[C@H](CC(F)F)N(C)C(=O)C[C@@H](C(=O)N(C)C)N(C)C(=O)[C@H](C2CCCC2)N(C)C(=O)C2(CC(C)(C)C2)NC(=O)[C@@H]2C[C@@H](C)CN2C(=O)[C@H](CCc2ccc(C(F)(F)F)c(OC)c2)NC(=O)CN(C)C(=O)[C@H](Cc2ccc(C)cc2)N2CC/C=C\C[C@@H](C2=O)N(C)C(=O)CN(C)C1=O [PP1877]	18.4 nM
CC[C@H](C)[C@@H]1NC(=O)[C@H](CC(C)C)N(C)C(=O)CSC[C@H](C(=O)N(C)C)N(C)C(=O)[C@H](C2CCCC2)N(C)C(=O)C2(CCCC2)NC(=O)[C@@H]2CCCN2C(=O)[C@H](CCc2cc(F)c(C(F)(F)F)c(F)c2)NC(=O)CN(C)C(=O)[C@H](Cc2ccc(C(F)(F)F)cc2)N2CC/C=C\C[C@@H](C2=O)N(C)C(=O)CN(C)C1=O [PP3109]	3420 nM
CCCN1C(=O)[C@@H]2CCN2C(=O)[C@H](C)N(C)C(=O)[C@H]([C@@H](C)CC)NC(=O)[C@H](CC(C)C)N(C)C(=O)C[C@@H](C(=O)N2CCOCC2)N(C)C(=O)[C@H](C2CCCC2)N(C)C(=O)C2(CCCC2)NC(=O)[C@@H]2C[C@H](C)CN2C(=O)[C@H](CCc2ccc(C(F)(F)F)c(Cl)c2)NC(=O)CN(C)C(=O)[C@@H]1Cc1ccc(C(F)(F)F)cc1 [PP0455] ([NMeL]I[NMeA][Aze][NPrPhe(4-CF3)][Sar][hPhe(3-Cl-4-CF3)][Pro(4S-Me)][Ac5c][NMeGly(cPent)][NMeD]-Morpholide; lactam N-11)	9.9 nM
CC[C@H](C)[C@@H]1NC(=O)[C@H](CC(F)F)N(C)C(=O)C[C@@H](C(=O)N(C)C)N(C)C(=O)[C@H](C2CCCC2)N(C)C(=O)C2(CC(C)(C)C2)NC(=O)[C@@H]2C[C@H](C)CN2C(=O)[C@H](CCc2ccc(C(F)(F)F)c(OC)c2)NC(=O)CN(C)C(=O)[C@H](Cc2ccc(C)cc2)N2CC/C=C\C[C@@H](C2=O)N(C)C(=O)CN(C)C1=O [PP1875]	7.7 nM
C#CCN1C(=O)[C@@H]2CCN2C(=O)[C@H](C)N(C)C(=O)[C@H]([C@@H](C)CC)NC(=O)[C@H](CC(C)C)N(C)C(=O)C[C@@H](C(=O)N2CCOCC2)N(C)C(=O)[C@H](C2CCCC2)N(C)C(=O)C2(CCCC2)NC(=O)[C@@H]2CCCN2C(=O)[C@H](CCc2ccc(C(F)(F)F)c(Cl)c2)NC(=O)CN(C)C(=O)[C@@H]1Cc1ccc(C)cc1 [PP0090] ([NMeL]I[NMeA][Aze][X52][Sar][hPhe(3-Cl-4-CF3)]P[Ac5c][NMeGly(cPent)][NMeD]-Morpholide; lactam N-11)	1.9 nM
CC[C@H](C)[C@@H]1NC(=O)[C@H](CC)N(C)C(=O)C[C@@H](C(=O)N(C)CC)N(C)C(=O)[C@H](C2CCCC2)N(C)C(=O)C2(CC(C)(C)C2)NC(=O)[C@@H]2C[C@@H](C)CN2C(=O)[C@H](CCc2cc(F)c(C(F)(F)F)c(F)c2)NC(=O)CN(C)C(=O)[C@H](Cc2ccc(C)cc2)N2CC/C=C\C[C@@H](C2=O)N(C)C(=O)CN(C)C1=O [PP1884]	17.3 nM
CCC[C@H]1C(=O)N[C@@H]([C@@H](C)CC)C(=O)N(C)CC(=O)N(C)[C@H]2C/C=C\CCN(C2=O)[C@@H](Cc2ccc(C)cc2)C(=O)N(C)CC(=O)N[C@@H](CCc2ccc(C(F)(F)F)c(Cl)c2)C(=O)N2C[C@@H](C)C[C@H]2C(=O)NC2(CCC2)C(=O)N(C)[C@@H](C2CCCC2)C(=O)N(C)[C@H](C(=O)N(C)CC)CC(=O)N1C [PP1848]	22.5 nM
CC[C@H](C)[C@@H]1NC(=O)[C@H](CC(C)C)N(C)C(=O)C[C@@H](C(=O)N2CCOCC2)N(C)C(=O)[C@H](C2CCCC2)NC(=O)C2(CCCC2)NC(=O)[C@@H]2CCCN2C(=O)[C@H](CCc2cc(F)c(C(F)(F)F)c(F)c2)NC(=O)CN(C)C(=O)[C@H](Cc2ccc(C(F)(F)F)cc2)N2CCCCC[C@@H](C2=O)N(C)C(=O)CN(C)C1=O [PP0478]	2750 nM
C=CCN1C(=O)[C@@H]2CCN2C(=O)[C@H](C)N(C)C(=O)[C@H]([C@@H](C)CC)NC(=O)[C@H](CC(C)C)N(C)C(=O)C[C@@H](C(=O)N2CCOCC2)N(C)C(=O)[C@H](C2CCCC2)N(C)C(=O)C2(CCCC2)NC(=O)[C@@H]2CCCN2C(=O)[C@H](CCc2ccc(C(F)(F)F)c(Cl)c2)NC(=O)CN(C)C(=O)[C@@H]1Cc1ccc(C)cc1 [PP0088] ([NMeL]I[NMeA][Aze][X50][Sar][hPhe(3-Cl-4-CF3)]P[Ac5c][NMeGly(cPent)][NMeD]-Morpholide; lactam N-11)	4.1 nM
C#CCN1CC(=O)N(C)[C@H]2C/C=C\CCN(C2=O)[C@@H](Cc2ccc(C)cc2)C(=O)N(C)CC(=O)N[C@@H](CCc2ccc(C(F)(F)F)c(OC)c2)C(=O)N2C[C@H](OCC)C[C@H]2C(=O)NC2(CC(C)(C)C2)C(=O)N(C)[C@@H](C2CCCC2)C(=O)N(C)[C@H](C(=O)N(C)C)CC(=O)N(C)[C@@H](CC(C)C)C(=O)N[C@@H]([C@@H](C)CC)C1=O [PP2060]	7.4 nM
CC[C@H](C)[C@@H]1NC(=O)[C@H](CC)N(C)C(=O)C[C@@H](C(=O)N(C)CC)N(C)C(=O)[C@H](C2CCCC2)N(C)C(=O)C2(CC(C)(C)C2)NC(=O)[C@@H]2C[C@H](C)CN2C(=O)[C@H](CCc2cc(F)c(C(F)(F)F)c(F)c2)NC(=O)CN(C)C(=O)[C@H](Cc2ccc(C)cc2)N2CC/C=C\C[C@@H](C2=O)N(C)C(=O)CN(C)C1=O [PP1882]	20.2 nM
CCCN1C(=O)[C@@H]2CCN2C(=O)[C@@H]2[C@@H](C)CN2C(=O)[C@H]([C@@H](C)CC)NC(=O)[C@H](CC(C)C)N(C)C(=O)C[C@@H](C(=O)N2CCOCC2)N(C)C(=O)[C@H](C2CCCC2)N(C)C(=O)C2(CCCC2)NC(=O)[C@@H]2CCCN2C(=O)[C@H](CCc2ccc(C(F)(F)F)c(Cl)c2)NC(=O)CN(C)C(=O)[C@@H]1Cc1ccc(C(F)(F)F)cc1 [PP0279] ([NMeL]I[Aze(3S-Me)][Aze][NPrPhe(4-CF3)][Sar][hPhe(3-Cl-4-CF3)]P[Ac5c][NMeGly(cPent)][NMeD]-Morpholide; lactam N-11)	15 nM
